Square brackets hold non-standard residues; d marks the D form. Peptide text beside a SMILES is read from it. 2Nal = N[C@@H](Cc1ccc2ccccc2c1)C(=O)O
Legend:
[1] = system: 1:1 complex of F′GG-CB[8]; test: ITC: secondary association of tripeptides with the 1:1 complex of F′GG-CB[8]; format: binding; details: for secondary association / binding to F′GG-CB[8]: in words; for Ka: 10 mM phosphate buffer pH 7.0, 298 K, averaged with three replicates
Experimental: (§1) Isothermal titration calorimetry (ITC) was employed to study binding thermodynamics of heteropeptide dimerization (FIG. 2c and additional data not shown). Titration of F′GG (3.0 mM) into CB[8](0.1 mM) led to a stepwise binding curve with two transitions at molar ratios of 1.0 and 2.0 (FIG. 2c). The first-step binding constant (K1) is 6.6×10^5 M^−1, while the second-step (K2) is 9.4×10^3 M^−1. This indicates negative cooperativity where K1>K2^18,19,23 Such favourable 1:1 complexation enables secondary access of electron-rich aromatic peptides.
(§2) ITC experiments were operated on a Malvern MicroCal Auto-ITC200 apparatus at 298 K in 10 mM phosphate buffer with pH 7.0. In a of 1 injection of 0.6 μL and 32 consecutive injections of 1.2 μL with 90 s intervals between injections. The first data point was removed before analysis. The ITC data were fitted by MicroCal Analysis Centre software using one set of sites model. In a typical experiment for homoternary complexation, the host molecule (CB[8]) was loaded in the sample cell with a concentration of 0.1 mM, and the guest peptide was loaded in the syringe with a concentration of 2.0 mM. The injection and interval settings were the same as above. The first data point was removed from the data set before analysis. The obtained ITC curves were fitted by MicroCal Analysis Centre software using sequential binding model. All parameters were averaged with three replicates, s.d. n=3.

[2] = cited from earlier work
[3] = ITC: titration of F′GG into CB[8] (stepwise binding); details: F′GG (3.0 mM) into CB[8] (0.1 mM)
Experimental: as §1
as §2, with “All parameters were averaged with three replicates, s.d. n=3.” left out

[4] = CD secondary structure verification of released insulin; format: physicochemical
Experimental: CD measurements were performed on a Chirascan spectrometer (Applied Photophysics). Scans were carried out at 298 K from 200-500 nm at 1.0 nm intervals. The acquisition time was 0.5 second in a 0.1 cm path length quartz cuvette. CD spectra were collected using solutions from the above UV experiments of the 8-day storage and release experiments. […] All solutions were diluted 2× before the measurements. All scans were collected and averaged out over three scans with background noise correction.

[5] = UV quantification of insulin on-resin recognition, 8-day storage and on-demand release; format: physicochemical
Experimental: UV spectra were obtained on a Cary 4000 Ultravioletvisible Spectrometer. A pair of quartz cuvettes with 2 mm gap was used. Double beam mode with a fixed 2 nm spectral bandwidth and baseline correction were selected. In a typical run, 300 μl of 1 mM solution was transferred to the quartz cuvette and was scanned compared to phosphate buffer in D2O. UV spectra were obtained in the linear absorption range (0.2-0.8) for better quantification.
1 N HCl was immediately added to reach acid concentration of 5 mM. […] In a typical experiment, 8 μmol F′GGGGG equivalent of resin H2O suspension was added to a 12 ml syringe with a polyester frit (r=8.0 mm, h=2.0 mm). After H2Owas drained, 8 ml of 0.1 mM CB[8] solution was added to the resin and the plunge and a stopper were assembled to the syringe to form a sealed chamber. The syringe was transferred onto a wrist-action shaker and shaken for 12 hours. […] Then, the liquid (resin-treated solution) in syringe was drained thoroughly and the resin was washed with H2Oonce. After that, 0.8 ml of 2 mM DMADA solution (in 5 mM of HCl) was added to the resin and shaken gently for an additional 3 hours. The solution (released solution) was drained.
The 8-day storage and release experiment was conducted as follows. 9 syringes were prepared each with 8 μmol F′GGGGG equivalent of resin H2Osuspension. […] All syringes with the resin were kept at room temperature. Starting from day 0 to day 8, on each day, a syringe with resin was added with 0.8 ml of 2 mM DMADA solution (to get released solution, one per day). All yielded solutions were analyzed on UV spectroscopy immediately. Numbers to calculate released percentage in FIG. 4g were absorbance at 276 nm.

## NC(=O)CNC(=O)CNC(=O)[C@@H](N)CCC(=O)O [EGG, reference compound] (H-Glu-Gly-Gly-NH2)
[1]
  secondary association / binding to F′GG-CB[8]: no secondary association

## NC(=O)CNC(=O)CNC(=O)[C@@H](N)Cc1ccccc1 [FGG, (S)-2-amino-N-(2-((2-amino-2-oxoethyl)amino)-2-oxoethyl)-3-phenylpropanamide] (H-Phe-Gly-Gly-NH2)
[1]
  Ka: 356 ± 26 10^3M^−1
[2]
  binding strength K of homodimer 2FGG-CB[8]: ca. 10^11 M^−2

## NCC(=O)N[C@@H](Cc1ccccc1)C(=O)NCC(N)=O [GFG, (S)—N-(2-amino-2-oxoethyl)-2-(2-aminoacetamido)-3-phenylpropanamide] (H-Gly-Phe-Gly-NH2)
[1]
  Ka: 58 ± 3 10^3M^−1

## NCC(=O)NCC(=O)N[C@@H](Cc1ccccc1)C(N)=O [GGF, (S)-2-(2-(2-aminoacetamido)acetamido)-3-phenylpropanamide] (H-Gly-Gly-Phe-NH2)
[1]
  Ka: 22 ± 1 10^3M^−1

## NCC(=O)NCC(=O)N[C@@H](Cc1ccc2ccccc2c1)C(N)=O [GGNp, (S)-2-(2-(2-aminoacetamido)acetamido)-3-(naphthalen-2-yl)propanamide] (H-Gly-Gly-[2Nal]-NH2)
[1]
  Ka: 90 ± 2 10^3M^−1

## NCC(=O)NCC(=O)N[C@@H](Cc1ccc(O)cc1)C(N)=O [GGY, (S)-2-(2-(2-aminoacetamido)acetamido)-3-(4-hydroxyphenyl)propanamide] (H-Gly-Gly-Tyr-NH2)
[1]
  secondary association / binding to F′GG-CB[8]: no secondary binding

## NCC(=O)N[C@@H](Cc1ccc2ccccc2c1)C(=O)NCC(N)=O [GNpG, (S)—N-(2-amino-2-oxoethyl)-2-(2-aminoacetamido)-3-(naphthalen-2-yl)propanamide] (H-Gly-[2Nal]-Gly-NH2)
[1]
  Ka: 165 ± 10 10^3M^−1

## NCC(=O)N[C@@H](Cc1c[nH]c2ccccc12)C(=O)NCC(N)=O [GWG, (S)—N-(2-amino-2-oxoethyl)-2-(2-aminoacetamido)-3-(1H-indol-3-yl)propanamide] (H-Gly-Trp-Gly-NH2)
[1]
  Ka: 103 ± 6 10^3M^−1

## NCC(=O)N[C@@H](Cc1ccc(O)cc1)C(=O)NCC(N)=O [GYG] (H-Gly-Tyr-Gly-NH2)
[1]
  Ka: 4 ± 0.3 10^3M^−1

## NCCCC[C@H](N)C(=O)NCC(=O)NCC(N)=O [KGG, (S)-2,6-diamino-N-(2-((2-amino-2-oxoethyl)amino)-2-oxoethyl)hexanamide, reference compound] (H-Lys-Gly-Gly-NH2)
[1]
  secondary association / binding to F′GG-CB[8]: no secondary association

## CC(C)C[C@H](N)C(=O)NCC(=O)NCC(N)=O [LGG, reference compound] (H-Leu-Gly-Gly-NH2)
[1]
  secondary association / binding to F′GG-CB[8]: no secondary association

## NC(=O)CNC(=O)CNC(=O)[C@@H](N)Cc1ccc2ccccc2c1 [NpGG, (S)-2-amino-N-(2-((2-amino-2-oxoethyl)amino)-2-oxoethyl)-3-(naphthalen-2-yl) propanamide] (H-[2Nal]-Gly-Gly-NH2)
[1]
  Ka: 382 ± 22 10^3M^−1

## NC(=O)CNC(=O)CNC(=O)[C@@H](N)Cc1c[nH]c2ccccc12 [WGG, (S)-2-amino-N-(2-((2-amino-2-oxoethyl)amino)-2-oxoethyl)-3-(1H-indol-3-yl) propanamide] (H-Trp-Gly-Gly-NH2)
[1]
  Ka: 460 ± 53 10^3M^−1

## NC(=O)CNC(=O)CNC(=O)[C@@H](N)Cc1ccc(O)cc1 [YGG] (H-Tyr-Gly-Gly-NH2)
[1]
  Ka: 3 ± 5 10^3M^−1

## (S)-2-amino-N-(2-((2-amino-2-oxoethyl)amino)-2-oxoethyl)-3-(perfluorophenyl) propenamide [F′GG]
[3]
  first-step binding constant (K1): 660000 M⁻¹
  second-step binding constant (K2): 9400 M⁻¹

## insulin: Insulin (Human Recombinant), purchased; widely-used biopharmaceutical for diabetes treatment
[4]; after 2, 5, 8 days of storage under room temperature on functionalized resin
  secondary structures of insulin after storage: intact
[4]; insulin, original
  CD absorbance at 208 nm, signal (mean of repeats): −56.4 θm · deg
[4]; released on day 2
  CD absorbance at 208 nm, signal (mean of repeats): −56.4 θm · deg
[4]; released on day 5
  CD absorbance at 208 nm, signal (mean of repeats): −50.3 θm · deg
[4]; released on day 8
  CD absorbance at 208 nm, signal (mean of repeats): −52.3 θm · deg
[5]; release on day 0
  UV absorbance at 276 nm, released: 0.176 abs
[5]; release on day 2, storage at room temperature
  UV absorbance at 276 nm, released: 0.1768 abs
[5]; release on day 5, storage at room temperature
  UV absorbance at 276 nm, released: 0.1683 abs
[5]; release on day 8, storage at room temperature
  UV absorbance at 276 nm, released: 0.1739 abs

From patent publication US20250257111A1, “Supramolecular Complex of a Biomolecule” (Cambridge Enterprise Limited, priority 2022, published 2025)
